Test results: patent US9023789B2, “Amylin analogs and pharmaceutical compositions thereof” (Novo Nordisk A/S, priority 2012, dated 2015)
Numbered stars: 1 amine (or outer) side, 2 acyl side, 3 side chain; on linkers, the order of the positions; unused ones are H or OH. Bridge positions count the residues as written; N and C are the ends. Side chains are listed from the residue outwards. Peptide text beside a SMILES is read from it. * marks the point of attachment. C20 diacid = O=C(O)CCCCCCCCCCCCCCCCCCC(=O)*; γGlu = O=C(O)[C@H](CCC(=O)[*:2])N[*:1]; AEEA = NCCOCCOCC(=O)O

Key:
[1] = ASSAY (III) ThT fibrillation assay for physical stability; format: physicochemical
Method in brief: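 Physical stability scored by ThT fluorescence (444 nm excitation, 485 nm emission) tracked every 20 min during 37 °C incubation with 960 rpm shaking, ThT at 1 μM final. Values are replicate means with SD at chosen times; HPLC against pramlintide standard gives initial and post-assay soluble concentrations.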

[2] = biological target: T1, human calcitonin receptor (Homo sapiens, UniProt P30988); test: ASSAY (VII) binding to the human calcitonin receptor (SPA, 125I-Calcitonin); conditions: read-out: hCTR bind IC50;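 also: cell membranes (35 ng/µL) combined with SPA beads in 40 µL of pH 7.4 Hepes buffer, 384-well format, signal counted on a TopCounter instrument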
T1 construct: expressed in transfected cells
T1 sequence (P30988 25-474): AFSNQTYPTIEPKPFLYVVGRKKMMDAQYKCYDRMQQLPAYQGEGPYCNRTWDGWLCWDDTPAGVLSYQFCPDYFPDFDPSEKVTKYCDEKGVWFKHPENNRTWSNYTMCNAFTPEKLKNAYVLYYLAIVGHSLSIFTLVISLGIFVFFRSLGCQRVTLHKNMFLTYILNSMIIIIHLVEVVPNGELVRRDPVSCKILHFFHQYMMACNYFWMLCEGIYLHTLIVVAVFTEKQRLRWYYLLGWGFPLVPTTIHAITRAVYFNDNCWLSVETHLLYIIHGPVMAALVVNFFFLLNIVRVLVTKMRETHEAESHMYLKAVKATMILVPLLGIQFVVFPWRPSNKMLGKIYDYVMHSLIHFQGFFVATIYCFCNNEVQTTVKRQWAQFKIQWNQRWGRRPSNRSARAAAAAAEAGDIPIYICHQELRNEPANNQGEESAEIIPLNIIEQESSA

ThT pH 4.0 lag time (h) [1] | IC50 [2] | Compound
45 h | 15.5 nM | CC[C@H](C)[C@H](NC(=O)[C@H](C)NC(=O)CNC(=O)[C@H](Cc1ccccc1)NC(=O)[C@H](CC(N)=O)NC(=O)[C@@H]1CCCN1C(=O)[C@H](CO)NC(=O)[C@H](CO)NC(=O)[C@H](Cc1c[nH]cn1)NC(=O)[C@H](CCCNC(=N)N)NC(=O)[C@H](CC(C)C)NC(=O)[C@H](Cc1ccccc1)NC(=O)[C@H](CCC(=O)O)NC(=O)[C@H](C)NC(=O)[C@H](CC(C)C)NC(=O)[C@H](CCCNC(=N)N)NC(=O)[C@H](CCC(N)=O)NC(=O)[C@@H](NC(=O)[C@H](C)NC(=O)[C@@H]1CSSC[C@H](NC(=O)[C@H](CCCCN)NC(=O)CC[C@H](NC(=O)CC[C@H](NC(=O)CCCCCCCCCCCCCCCCCCC(=O)O)C(=O)O)C(=O)O)C(=O)N[C@@H](CC(N)=O)C(=O)N[C@@H]([C@@H](C)O)C(=O)N[C@@H](C)C(=O)N[C@@H]([C@@H](C)O)C(=O)N1)[C@@H](C)O)C(=O)N1CCC[C@H]1C(=O)N[C@@H](CO)C(=O)N[C@@H](CO)C(=O)N[C@H](C(=O)N[C@@H](CC(N)=O)C(=O)N[C@H](C(=O)NCC(=O)N[C@@H](CO)C(=O)N[C@@H](CC(N)=O)C(=O)N[C@H](C(=O)N[C@@H](Cc1ccc(O)cc1)C(N)=O)[C@@H](C)O)C(C)C)[C@@H](C)O [Example 15] ({C20 diacid-γGlu-γGlu}-KCNTATCATQRLAEFLRHSSPNFGAIPSSTNVGSNTY-NH2; disulfide 2-7 (inferred))
45 h | 14.1 nM | CC[C@H](C)[C@H](NC(=O)[C@H](C)NC(=O)CNC(=O)[C@H](Cc1ccccc1)NC(=O)[C@H](CC(N)=O)NC(=O)[C@@H]1CCCN1C(=O)[C@H](CO)NC(=O)[C@H](CO)NC(=O)[C@H](Cc1c[nH]cn1)NC(=O)[C@H](CCCNC(=N)N)NC(=O)[C@H](CC(C)C)NC(=O)[C@H](Cc1ccccc1)NC(=O)[C@H](CCC(=O)O)NC(=O)[C@H](C)NC(=O)[C@H](CC(C)C)NC(=O)[C@H](CCCNC(=N)N)NC(=O)[C@H](CCC(N)=O)NC(=O)[C@@H](NC(=O)[C@H](C)NC(=O)[C@@H]1CSSC[C@H](NC(=O)[C@@H](N)CCCCNC(=O)CC[C@H](NC(=O)CC[C@H](NC(=O)CCCCCCCCCCCCCCCCCCC(=O)O)C(=O)O)C(=O)O)C(=O)N[C@@H](CC(N)=O)C(=O)N[C@@H]([C@@H](C)O)C(=O)N[C@@H](C)C(=O)N[C@@H]([C@@H](C)O)C(=O)N1)[C@@H](C)O)C(=O)N1CCC[C@H]1C(=O)N[C@@H](CO)C(=O)N[C@@H](CO)C(=O)N[C@H](C(=O)N[C@@H](CC(N)=O)C(=O)N[C@H](C(=O)NCC(=O)N[C@@H](CCCNC(=N)N)C(=O)N[C@@H](CCC(=O)O)C(=O)N[C@H](C(=O)N[C@@H](Cc1ccc(O)cc1)C(N)=O)[C@@H](C)O)C(C)C)[C@@H](C)O [Example 105] (H-K([γGlu-γGlu-C20 diacid])CNTATCATQRLAEFLRHSSPNFGAIPSSTNVGRETY-NH2; disulfide 2-7; N-terminus assumed)
12 h | 25.3 nM | CC[C@H](C)[C@H](NC(=O)[C@H](C)NC(=O)CNC(=O)[C@H](Cc1ccccc1)NC(=O)[C@H](CC(N)=O)NC(=O)[C@@H]1CCCN1C(=O)[C@H](CO)NC(=O)[C@H](CO)NC(=O)[C@H](Cc1c[nH]cn1)NC(=O)[C@H](CCCNC(=N)N)NC(=O)[C@H](CC(C)C)NC(=O)[C@H](Cc1ccccc1)NC(=O)[C@H](CC(N)=O)NC(=O)[C@H](C)NC(=O)[C@H](CC(C)C)NC(=O)[C@H](CCCNC(=N)N)NC(=O)[C@H](CCC(N)=O)NC(=O)[C@@H](NC(=O)[C@H](C)NC(=O)[C@@H]1CSSC[C@H](NC(=O)[C@@H](N)CCCCNC(=O)COCCOCCNC(=O)CC[C@H](NC(=O)CCCCCCCCCCCCCCCCCCC(=O)O)C(=O)O)C(=O)N[C@@H](CC(N)=O)C(=O)N[C@@H]([C@@H](C)O)C(=O)N[C@@H](C)C(=O)N[C@@H]([C@@H](C)O)C(=O)N1)[C@@H](C)O)C(=O)N1CCC[C@H]1C(=O)N[C@@H](CO)C(=O)N[C@@H](CO)C(=O)N[C@H](C(=O)N[C@@H](CC(N)=O)C(=O)N[C@H](C(=O)NCC(=O)N[C@@H](CO)C(=O)N[C@@H](CCC(=O)O)C(=O)N[C@H](C(=O)N[C@@H](Cc1ccc(O)cc1)C(N)=O)[C@@H](C)O)C(C)C)[C@@H](C)O [Example 26] (H-K([AEEA-γGlu-C20 diacid])CNTATCATQRLANFLRHSSPNFGAIPSSTNVGSETY-NH2; disulfide 2-7; N-terminus assumed)
9 h | 3.61 nM | CC[C@H](C)[C@H](NC(=O)[C@H](C)NC(=O)CNC(=O)[C@H](Cc1ccccc1)NC(=O)[C@H](CC(N)=O)NC(=O)[C@@H]1CCCN1C(=O)[C@H](CO)NC(=O)[C@H](CO)NC(=O)[C@H](Cc1c[nH]cn1)NC(=O)[C@H](CCCNC(=N)N)NC(=O)[C@H](CC(C)C)NC(=O)[C@H](Cc1ccccc1)NC(=O)[C@H](CCC(=O)O)NC(=O)[C@H](C)NC(=O)[C@H](CC(C)C)NC(=O)[C@H](CCCNC(=N)N)NC(=O)[C@H](CCC(N)=O)NC(=O)[C@@H](NC(=O)[C@H](C)NC(=O)[C@@H]1CSSC[C@H](NC(=O)[C@H](CCCCN)NC(=O)CC[C@H](NC(=O)CCCCCCCCCCCCCCCCCCC(=O)O)C(=O)O)C(=O)N[C@@H](CC(N)=O)C(=O)N[C@@H]([C@@H](C)O)C(=O)N[C@@H](C)C(=O)N[C@@H]([C@@H](C)O)C(=O)N1)[C@@H](C)O)C(=O)N[C@@H](CC(C)C)C(=O)N1CCC[C@H]1C(=O)N[C@@H](CO)C(=O)N[C@H](C(=O)N[C@@H](CC(N)=O)C(=O)N[C@H](C(=O)NCC(=O)N[C@@H](CO)C(=O)N[C@@H](CCC(=O)O)C(=O)N[C@H](C(=O)N[C@@H](Cc1ccc(O)cc1)C(N)=O)[C@@H](C)O)C(C)C)[C@@H](C)O [Example 33] ({C20 diacid-γGlu}-KCNTATCATQRLAEFLRHSSPNFGAILPSTNVGSETY-NH2; disulfide 2-7)
15 h | 2.18 nM | CC[C@H](C)[C@H](NC(=O)[C@H](C)NC(=O)CNC(=O)[C@H](Cc1ccccc1)NC(=O)[C@H](CC(N)=O)NC(=O)[C@@H]1CCCN1C(=O)[C@H](CO)NC(=O)[C@H](CO)NC(=O)[C@H](Cc1c[nH]cn1)NC(=O)[C@H](CCCNC(=N)N)NC(=O)[C@H](CC(C)C)NC(=O)[C@H](Cc1ccccc1)NC(=O)[C@H](CCC(=O)O)NC(=O)[C@H](C)NC(=O)[C@H](CC(C)C)NC(=O)[C@H](CCCNC(=N)N)NC(=O)[C@H](CCC(N)=O)NC(=O)[C@@H](NC(=O)[C@H](C)NC(=O)[C@@H]1CSSC[C@H](NC(=O)[C@H](CCCCN)NC(=O)CC[C@H](NC(=O)CCCCCCCCCCCCCCCCCCC(=O)O)C(=O)O)C(=O)N[C@@H](CC(N)=O)C(=O)N[C@@H]([C@@H](C)O)C(=O)N[C@@H](C)C(=O)N[C@@H]([C@@H](C)O)C(=O)N1)[C@@H](C)O)C(=O)N1CCC[C@H]1C(=O)N[C@@H](CO)C(=O)N1CCC[C@H]1C(=O)N[C@H](C(=O)N[C@@H](CC(N)=O)C(=O)N[C@H](C(=O)NCC(=O)N[C@@H](CO)C(=O)N[C@@H](CC(N)=O)C(=O)N[C@H](C(=O)N[C@@H](Cc1ccc(O)cc1)C(N)=O)[C@@H](C)O)C(C)C)[C@@H](C)O [Example 37] ({C20 diacid-γGlu}-KCNTATCATQRLAEFLRHSSPNFGAIPSPTNVGSNTY-NH2; disulfide 2-7 (inferred))
45 h | 29.2 nM | CC[C@H](C)[C@H](NC(=O)[C@H](C)NC(=O)CNC(=O)[C@H](Cc1ccccc1)NC(=O)[C@H](CC(N)=O)NC(=O)[C@@H]1CCCN1C(=O)[C@H](CO)NC(=O)[C@H](CO)NC(=O)[C@H](Cc1c[nH]cn1)NC(=O)[C@H](CCCNC(=N)N)NC(=O)[C@H](CC(C)C)NC(=O)[C@H](Cc1ccccc1)NC(=O)[C@H](C)NC(=O)[C@H](C)NC(=O)[C@H](CC(C)C)NC(=O)[C@H](CCCNC(=N)N)NC(=O)[C@H](CCC(N)=O)NC(=O)[C@@H](NC(=O)[C@H](C)NC(=O)[C@@H]1CSSC[C@H](NC(=O)[C@H](CCCNC(=N)N)NC(=O)CNC(=O)CC[C@H](NC(=O)CCCCCCCCCCCCCCCCCCC(=O)O)C(=O)O)C(=O)N[C@@H](CC(N)=O)C(=O)N[C@@H]([C@@H](C)O)C(=O)N[C@@H](C)C(=O)N[C@@H]([C@@H](C)O)C(=O)N1)[C@@H](C)O)C(=O)N1CCC[C@H]1C(=O)N[C@@H](CO)C(=O)N[C@@H](CO)C(=O)N[C@H](C(=O)N[C@@H](CC(N)=O)C(=O)N[C@H](C(=O)NCC(=O)N[C@@H](Cc1c[nH]cn1)C(=O)N[C@@H](CC(N)=O)C(=O)N[C@H](C(=O)N[C@@H](Cc1ccc(O)cc1)C(N)=O)[C@@H](C)O)C(C)C)[C@@H](C)O [Example 101] ({C20 diacid-γGlu}-GRCNTATCATQRLAAFLRHSSPNFGAIPSSTNVGHNTY-NH2; disulfide 3-8)
